# Measurements as given in patent publication US20240300954A1, “NOVEL MODULATORS OF THE SIGMA-2 RECEPTOR AND THEIR METHOD OF USE” (Temple University-Of The Commonwealth System of Higher …, priority 2017, published 2024).
# Target: sigma-2 receptors (Homo sapiens, UniProt Q5BJF2)
# Experiment: Radiolabel Binding Studies for the Sigma-2 Receptor (3H-DTG competition)
# Conditions: 3H-DTG radioligand; membrane fractions of cells expressing recombinant sigma-2 receptors
# Procedure: A solution of the compound of the disclosure to be tested is prepared as a 1-mg/ml stock in Assay Buffer or DMSO according to its solubility. A similar stock of the reference compound Haloperidol is also prepared as a positive control. Eleven dilutions (5× assay concentration) of the compound of the disclosure and Haloperidol are prepared in the Assay Buffer by serial dilution to yield final corresponding assay concentrations ranging from 10 pM to 10 μM.
# A stock concentration of 5 nM ^3H-1,3-di-(2-tolyl)guanidine (^3H-DTG) is prepared in 50 mM Tris-HCl, 10 mM MgCl2, 1 mM EDTA, pH 7.4 (Assay Buffer). Aliquots (50 μl) of radioligand are dispensed into the wells of a 96-well plate containing 100 μl of Assay Buffer. Duplicate 50 μl aliquots of the compound of the disclosure test and Haloperidol positive control reference compound serial dilutions are added.
# Membrane fractions of cells expressing recombinant sigma-2 receptors (50 μL) are dispensed into each well. The membranes are prepared from stably tranfected cell lines expressing sigma-2 receptors cultured on 10-cm plates by harvesting PBS-rinsed monolayers, resuspending and lysing in chilled, hypotonic 50 mM Tris-HCl, pH 7.4, centrifuging at 20,000×g, decanting the supernatant and storing at −80° C.; the membrane preparations are resuspended in 3 ml of chilled Assay Buffer and homogenized by several passages through a 26 gauge needle before using in the assay.
# The 250-μl reactions are incubated at room temperature for 1.5 hours, then harvested by rapid filtration onto 0.3% polyethyleneimine-treated, 96-well filter mats using a 96-well Filtermate harvester. Four rapid 500-μl washes are performed with chilled Assay Buffer to reduce non-specific binding. The filter mats are dried, then scintillant is added to the filters and the radioactivity retained on the filters is counted in a Microbeta scintillation counter.
# Raw data (dpm) representing total radioligand binding (i.e., specific+non-specific binding) are plotted as a function of the logarithm of the molar concentration of the competitor (i.e., test or reference compound). Non-linear regression of the normalized (i.e., percent radioligand binding compared to that observed in the absence of test or reference compound) raw data is performed in Prism 4.0 (GraphPad Software) using the built-in three parameter logistic model describing ligand competition binding to radioligand-labeled sites:
# [formula] • where bottom equals the residual radioligand binding measured in the presence of 10 μM reference compound (i.e., non-specific binding) and top equals the total radioligand binding observed in the absence of competitor. The log IC50 (i.e., the log of the ligand concentration that reduces radioligand binding by 50%) is thus estimated from the data and used to obtain the Ki by applying the Cheng-Prusoff approximation:
# [formula] • where [ligand] equals the assay radioligand concentration and KD equals the affinity constant of the radioligand for the target receptor.
# sigma-2 receptors, sequence (Q5BJF2 whole entry, looked up): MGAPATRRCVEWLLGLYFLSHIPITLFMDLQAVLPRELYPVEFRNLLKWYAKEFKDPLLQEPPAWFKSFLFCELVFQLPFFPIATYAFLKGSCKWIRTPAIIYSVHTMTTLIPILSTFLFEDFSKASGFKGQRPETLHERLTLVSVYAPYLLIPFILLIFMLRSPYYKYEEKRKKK
row,SMILES,IC50
1,CCC1(CC)CC(CCN2CC3CN(c4ccccc4C#N)CC3C2)OC1=O (stereo not drawn) [Entry 16],6.8 nM
2,CCC1(CC)CC(CCN2CC3CN(c4cccc(OC)c4)CC3C2)OC1=O (stereo not drawn) [Entry 20],25 nM
3,CCC1(CC)CC(CCN2CC3CN(c4cccc(C#N)c4)CC3C2)OC1=O (stereo not drawn) [Entry 17],7 nM
4,Cc1cc(N2CC3(CN(CCC4CC5(CCCCC5)C(=O)O4)C3)C2)ccn1 (stereo not drawn) [Entry 13],1.2 nM
5,CCC1(CC)CC(CCN2CC3CN(c4ccccc4)CC3C2)OC1=O (stereo not drawn) [Entry 1],3.5 nM
6,CCC1(CC)CC(CCN2CC3CN(c4ccccc4C(C)C)CC3C2)OC1=O (stereo not drawn) [Entry 4],2 nM
7,Cc1cnccc1N1CC2(CN(CCC3CC4(CCCCC4)C(=O)O3)C2)C1 (stereo not drawn) [Entry 12],3.9 nM
8,O=C1OC(CCN2CC3(C2)CN(c2ccccc2)C3)CC12CCCCC2 (stereo not drawn) [Entry 11],30 nM
9,Cc1cc(N2CC3CN(CCC4CC5(CCCCC5)C(=O)O4)CC3C2)cc(C)n1 (stereo not drawn) [Entry 8],24 nM
10,CCC1(CC)CC(CCN2CC3CN(c4ccccc4OC)CC3C2)OC1=O (stereo not drawn) [Entry 19],6.5 nM
11,O=C1OC(CCN2CC3CN(c4ccncc4)CC3C2)CC12CCCCC2 (stereo not drawn) [Entry 3],39 nM
12,Cc1cc(N2CC3(CN(CCC4CC5(CCCCC5)C(=O)O4)C3)C2)cc(C)n1 (stereo not drawn) [Entry 14],1.5 nM
13,CC(C)c1ccccc1N1CC2CN(CCC3CC4(CCCCC4)C(=O)O3)CC2C1 (stereo not drawn) [Entry 5],2.4 nM
14,CCC1(CC)CC(CCN2CC3(C2)CN(c2ccccc2)C3)OC1=O (stereo not drawn) [Entry 15],53 nM
15,CCC1(CC)CC(CCN2CC3CN(c4ccc(C#N)cc4)CC3C2)OC1=O (stereo not drawn) [Entry 18],9.6 nM
16,CCC1(CC)CC(CCN2CC3CN(c4ccncc4)CC3C2)OC1=O (stereo not drawn) [Entry 2],29 nM
17,CCC1(CC)CC(CCN2CC3CN(c4ccc(OC)cc4)CC3C2)OC1=O (stereo not drawn) [Entry 21],22 nM
18,Cc1cnccc1N1CC2CN(CCC3CC4(CCCCC4)C(=O)O3)CC2C1 (stereo not drawn) [Entry 6],3.9 nM
19,CCC1(CC)CC(CCN2CC3(C2)CN(c2ccncc2)C3)OC1=O (stereo not drawn) [Entry 10],59 nM
20,O=C1OC(CCN2CC3(C2)CN(c2ccncc2)C3)CC12CCCCC2 (stereo not drawn) [Entry 9],34 nM
21,Cc1cc(N2CC3CN(CCC4CC5(CCCCC5)C(=O)O4)CC3C2)ccn1 (stereo not drawn) [Entry 7],11 nM
